Source: paper PMC8222254, “Self-assembly of an anion receptor with metal-dependent kinase inhibition and potent in vitro anti-cancer properties” (Nature Communications, 2021)
“And” between values parts separate entries of the source, which are not always exact repeats. Equal entries are not always repeated.

Experiments:
Type in all cases: biochemical
[1] = target: T1, recombinant human AMPK (α1β2γ1) (Homo sapiens, UniProt Q13131); experiment: Substrate competition assay (ADP-Glo Kinase Assay)
T1 construct: purchased Promega
T1 sequence (Q13131 whole entry): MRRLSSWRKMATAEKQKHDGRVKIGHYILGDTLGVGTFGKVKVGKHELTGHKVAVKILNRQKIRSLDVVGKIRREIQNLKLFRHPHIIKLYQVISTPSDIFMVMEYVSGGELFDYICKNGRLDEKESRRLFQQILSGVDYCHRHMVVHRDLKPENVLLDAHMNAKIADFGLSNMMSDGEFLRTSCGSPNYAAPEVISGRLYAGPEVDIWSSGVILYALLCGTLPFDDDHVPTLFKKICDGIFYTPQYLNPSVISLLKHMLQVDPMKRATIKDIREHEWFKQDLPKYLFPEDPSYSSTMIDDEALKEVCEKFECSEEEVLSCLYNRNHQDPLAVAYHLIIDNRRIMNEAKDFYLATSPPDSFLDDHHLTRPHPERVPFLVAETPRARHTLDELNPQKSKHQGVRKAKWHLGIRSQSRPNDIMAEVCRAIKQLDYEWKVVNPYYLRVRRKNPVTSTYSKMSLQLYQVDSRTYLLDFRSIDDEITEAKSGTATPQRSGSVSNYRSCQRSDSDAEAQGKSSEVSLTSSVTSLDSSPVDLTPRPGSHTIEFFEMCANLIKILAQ
T1 sequence (O43741 whole entry partner): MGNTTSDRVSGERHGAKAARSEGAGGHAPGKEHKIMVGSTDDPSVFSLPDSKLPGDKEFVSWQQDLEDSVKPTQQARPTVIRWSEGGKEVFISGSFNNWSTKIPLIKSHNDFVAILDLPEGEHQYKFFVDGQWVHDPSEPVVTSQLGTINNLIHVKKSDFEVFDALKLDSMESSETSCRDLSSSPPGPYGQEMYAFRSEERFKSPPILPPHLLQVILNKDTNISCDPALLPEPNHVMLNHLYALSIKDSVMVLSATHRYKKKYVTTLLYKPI
T1 sequence (P54619 whole entry partner): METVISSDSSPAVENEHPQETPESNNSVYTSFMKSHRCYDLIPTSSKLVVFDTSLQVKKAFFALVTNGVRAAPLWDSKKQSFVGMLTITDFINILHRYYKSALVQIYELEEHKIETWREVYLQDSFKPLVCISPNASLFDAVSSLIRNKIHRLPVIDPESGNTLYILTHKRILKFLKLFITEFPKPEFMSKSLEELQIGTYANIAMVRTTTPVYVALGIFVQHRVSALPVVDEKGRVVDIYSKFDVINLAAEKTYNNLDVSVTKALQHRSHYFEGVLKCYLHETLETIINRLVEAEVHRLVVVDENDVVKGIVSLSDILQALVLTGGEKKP
Procedure: ATP competition kinase assays were performed by the MRC Protein Phosphorylation and Ubiquitination Unit International Centre for Kinase Profiling (University of Dundee). Inhibition of recombinant human AMPK (α1β2γ1) by 10μM [L2Cu3]^6+ or [L2Zn3]^6+ was evaluated at five different ATP concentrations (0.5, 2, 20, 200 and 500 µM ATP). Substrate competition assays were performed using the ADP-Glo Kinase Assay (Promega) and recombinant human AMPK (α1β2γ1) (Promega) with concentrations of the provided AMPK substrate (SAMStide substrate, Promega) ranging from 1 to 15 mg/ml. Following pre-incubation of substrate with kinase for 5 min 10 µM [L2Cu3]^6+, [L2Zn3]^6+ or solvent control and 50 µM ATP was added to start the kinase reaction. For determination of the effects of AMP on AMPK inhibition by [L2Zn3]^6+, the ADP-Glo Kinase Assay (Promega) was performed in presence of varying of AMP (0, 80, 160 μM).

[2] = target: 140 purified human kinases (Homo sapiens, UniProt Q13177); experiment: Kinase inhibition screen, cell-free 33P ATP assay at 10 μM
140 purified human kinases (Homo sapiens, UniProt Q13177), sequence (Q13177 whole entry): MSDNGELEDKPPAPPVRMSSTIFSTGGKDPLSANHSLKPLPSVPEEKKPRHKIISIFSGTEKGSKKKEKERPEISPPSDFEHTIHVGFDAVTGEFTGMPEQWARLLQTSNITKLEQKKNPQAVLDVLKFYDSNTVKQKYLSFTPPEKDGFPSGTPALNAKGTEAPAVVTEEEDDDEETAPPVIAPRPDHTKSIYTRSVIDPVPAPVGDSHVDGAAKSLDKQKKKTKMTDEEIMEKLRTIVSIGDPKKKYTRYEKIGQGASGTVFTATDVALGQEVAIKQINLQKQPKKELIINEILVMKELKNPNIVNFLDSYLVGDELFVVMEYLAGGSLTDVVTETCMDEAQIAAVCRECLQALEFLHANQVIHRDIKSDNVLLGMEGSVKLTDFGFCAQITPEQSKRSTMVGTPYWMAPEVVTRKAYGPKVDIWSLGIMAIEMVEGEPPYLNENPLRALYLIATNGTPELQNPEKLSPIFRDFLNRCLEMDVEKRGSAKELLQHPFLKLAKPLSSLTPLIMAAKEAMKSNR
Outline: (§1)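 Each complex tested in duplicate at 10 μM; cell-free radiometric assay using ^33P ATP on purified enzymes. Hits mapped by HGNC symbol onto the kinome tree.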

[3] = target: T2, 140 purified human kinases (Homo sapiens, UniProt Q16832); experiment: as above
T2 sequence (Q16832 22-855): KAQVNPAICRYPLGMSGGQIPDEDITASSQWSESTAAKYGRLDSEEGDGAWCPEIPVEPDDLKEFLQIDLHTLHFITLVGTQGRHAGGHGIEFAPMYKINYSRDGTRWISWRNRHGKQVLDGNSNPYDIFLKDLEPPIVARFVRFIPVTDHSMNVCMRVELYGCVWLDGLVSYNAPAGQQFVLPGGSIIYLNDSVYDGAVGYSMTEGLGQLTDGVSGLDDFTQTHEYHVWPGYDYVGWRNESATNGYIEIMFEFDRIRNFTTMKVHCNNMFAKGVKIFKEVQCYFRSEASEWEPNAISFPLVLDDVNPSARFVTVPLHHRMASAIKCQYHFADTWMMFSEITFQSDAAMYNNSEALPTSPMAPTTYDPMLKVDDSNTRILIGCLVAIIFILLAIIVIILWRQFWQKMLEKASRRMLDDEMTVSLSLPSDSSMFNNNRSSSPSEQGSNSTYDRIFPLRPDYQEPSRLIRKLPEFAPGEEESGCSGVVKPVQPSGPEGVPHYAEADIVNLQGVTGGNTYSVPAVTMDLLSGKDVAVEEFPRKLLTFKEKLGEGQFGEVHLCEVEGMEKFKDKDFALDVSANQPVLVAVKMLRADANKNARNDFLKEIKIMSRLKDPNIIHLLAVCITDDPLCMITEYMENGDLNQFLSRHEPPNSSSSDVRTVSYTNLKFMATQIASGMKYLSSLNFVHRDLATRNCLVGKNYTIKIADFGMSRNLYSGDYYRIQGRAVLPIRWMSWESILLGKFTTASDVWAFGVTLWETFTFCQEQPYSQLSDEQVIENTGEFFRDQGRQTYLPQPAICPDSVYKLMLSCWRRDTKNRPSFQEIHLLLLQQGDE
Outline: as §1

[4] = target: T3, 140 purified human kinases (Homo sapiens, UniProt P43403); experiment: as above; conditions: for % Activity inhibition Mean / % Activity inhibition Run 1 / % Activity inhibition Run 2 / % Activity remaining Run 1 / % Activity remaining Run 2: 10 µM
T3 sequence (P43403 1-619): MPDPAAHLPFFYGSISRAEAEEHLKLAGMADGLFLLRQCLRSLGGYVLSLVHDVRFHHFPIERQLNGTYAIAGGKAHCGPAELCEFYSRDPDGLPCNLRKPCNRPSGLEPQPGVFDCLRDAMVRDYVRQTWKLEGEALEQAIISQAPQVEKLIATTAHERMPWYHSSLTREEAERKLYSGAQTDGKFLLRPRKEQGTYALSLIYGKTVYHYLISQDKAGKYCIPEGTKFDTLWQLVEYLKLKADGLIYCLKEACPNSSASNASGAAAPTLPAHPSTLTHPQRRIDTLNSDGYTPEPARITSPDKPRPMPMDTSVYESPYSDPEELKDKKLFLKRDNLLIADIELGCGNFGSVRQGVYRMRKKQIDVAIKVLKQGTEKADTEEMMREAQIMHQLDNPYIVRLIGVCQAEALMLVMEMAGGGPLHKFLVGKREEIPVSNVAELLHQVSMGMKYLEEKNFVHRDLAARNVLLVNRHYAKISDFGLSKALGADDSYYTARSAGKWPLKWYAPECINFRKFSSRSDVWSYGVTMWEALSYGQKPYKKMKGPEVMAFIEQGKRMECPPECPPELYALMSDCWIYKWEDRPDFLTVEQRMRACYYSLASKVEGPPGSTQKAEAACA
Outline: as §1

[5] = target: 140 purified human kinases (Homo sapiens, UniProt Q9Y2K2); experiment: as above
140 purified human kinases (Homo sapiens, UniProt Q9Y2K2), sequence (Q9Y2K2 whole entry): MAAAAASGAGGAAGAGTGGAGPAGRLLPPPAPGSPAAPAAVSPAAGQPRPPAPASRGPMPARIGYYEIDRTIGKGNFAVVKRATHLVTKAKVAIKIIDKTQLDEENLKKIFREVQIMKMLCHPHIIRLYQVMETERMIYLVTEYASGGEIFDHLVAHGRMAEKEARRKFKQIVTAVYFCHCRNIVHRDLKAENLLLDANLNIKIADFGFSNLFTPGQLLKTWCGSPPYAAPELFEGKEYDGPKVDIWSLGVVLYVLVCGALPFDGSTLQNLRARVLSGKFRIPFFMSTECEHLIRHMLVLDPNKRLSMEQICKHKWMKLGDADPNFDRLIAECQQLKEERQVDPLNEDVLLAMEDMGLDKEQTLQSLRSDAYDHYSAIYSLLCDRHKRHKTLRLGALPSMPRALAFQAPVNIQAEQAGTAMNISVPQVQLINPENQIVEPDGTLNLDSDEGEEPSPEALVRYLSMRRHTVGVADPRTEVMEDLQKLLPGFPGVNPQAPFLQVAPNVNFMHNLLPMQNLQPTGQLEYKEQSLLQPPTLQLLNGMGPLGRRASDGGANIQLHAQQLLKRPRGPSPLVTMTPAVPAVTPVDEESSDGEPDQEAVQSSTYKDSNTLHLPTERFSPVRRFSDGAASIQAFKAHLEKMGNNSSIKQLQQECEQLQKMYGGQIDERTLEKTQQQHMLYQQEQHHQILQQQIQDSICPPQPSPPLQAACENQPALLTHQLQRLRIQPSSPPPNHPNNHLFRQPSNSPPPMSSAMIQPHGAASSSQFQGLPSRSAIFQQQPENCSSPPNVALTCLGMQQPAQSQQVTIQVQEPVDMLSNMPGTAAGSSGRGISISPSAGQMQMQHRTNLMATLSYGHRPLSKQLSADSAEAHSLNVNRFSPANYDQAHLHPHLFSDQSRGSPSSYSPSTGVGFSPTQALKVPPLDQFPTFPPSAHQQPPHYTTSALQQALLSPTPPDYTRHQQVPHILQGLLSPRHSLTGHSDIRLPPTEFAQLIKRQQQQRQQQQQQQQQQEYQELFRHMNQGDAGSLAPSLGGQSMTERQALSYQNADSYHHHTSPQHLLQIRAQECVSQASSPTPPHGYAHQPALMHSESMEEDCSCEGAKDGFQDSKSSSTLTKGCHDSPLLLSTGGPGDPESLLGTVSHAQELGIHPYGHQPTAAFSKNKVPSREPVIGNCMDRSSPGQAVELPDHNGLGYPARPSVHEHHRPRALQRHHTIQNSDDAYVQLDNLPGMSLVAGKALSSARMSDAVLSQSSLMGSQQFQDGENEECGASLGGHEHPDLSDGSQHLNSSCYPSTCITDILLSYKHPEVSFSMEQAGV
Outline: as §1

## [Cu+2].[Cu+2].[Cu+2].c1ccc(-c2csc(NCCN(CCNc3nc(-c4ccccn4)cs3)CCNc3nc(-c4ccccn4)cs3)n2)nc1.c1ccc(-c2csc(NCCN(CCNc3nc(-c4ccccn4)cs3)CCNc3nc(-c4ccccn4)cs3)n2)nc1 [[L2Cu3]6+]
[1]; Substrate 1 mg/ml
  %AMPK Activity Remaining, Mean: 34.60%
  %AMPK Activity Remaining, individual replicates: 16.20% and 28.30% and 59.40%
[1]; Substrate 2.5 mg/ml
  %AMPK Activity Remaining, Mean: 20.90%
  %AMPK Activity Remaining, individual replicates: 15.60% and 15.00% and 32.00%
[1]; Substrate 5 mg/ml
  %AMPK Activity Remaining, Mean: 17.00%
  %AMPK Activity Remaining, individual replicates: 18.00% and 15.40% and 17.70%
[1]; Substrate 10 mg/ml
  %AMPK Activity Remaining, Mean: 25.40%
  %AMPK Activity Remaining, individual replicates: 26.20% and 21.60% and 28.40%
[1]; Substrate 15 mg/ml
  %AMPK Activity Remaining, Mean: 17.20%
  %AMPK Activity Remaining, individual replicates: 13.60% and 12.90% and 25.20%
[2]; PAK2
  % Inhibition Run 1: 44.4%
  % Inhibition Run 2: 32.1%
  % Inhibition, Mean: 38%
  mean % activity: 62%
[2]; PAK2, Run 1
  % activity: 55.6%
[2]; PAK2, Run 2
  % activity: 67.9%
[3]; DDR2
  % Inhibition Run 1: 21.7%
  % Inhibition Run 2: 11.4%
  % Inhibition, Mean: 17%
  mean % activity: 83%
[3]; DDR2, Run 1
  % activity: 78.3%
[3]; DDR2, Run 2
  % activity: 88.6%
[4]; ZAP70
  % Inhibition Run 1: 94%
  % Inhibition Run 2: 89.2%
  % Inhibition, Mean: 92%
  mean % activity: 8%
  % Activity inhibition Mean: 91.6%
  % Activity inhibition Run 1: 94%
  % Activity inhibition Run 2: 89.2%
  % Activity remaining Run 1: 6.00%
  % Activity remaining Run 2: 10.80%
[4]; ZAP70, Run 1
  % activity: 6%
[4]; ZAP70, Run 2
  % activity: 10.8%
[5]; SIK3
  % Inhibition Run 1: 48.7%
  % Inhibition Run 2: 52.1%
  % Inhibition, Mean: 50%
  mean % activity: 50%
[5]; SIK3, Run 1
  % activity: 51.3%
[5]; SIK3, Run 2
  % activity: 47.9%

## CC(=O)[O-].CC(=O)[O-].CC(=O)[O-].CC(=O)[O-].CC(=O)[O-].CC(=O)[O-].[Zn+2].[Zn+2].[Zn+2].c1ccc(-c2csc(NCCN(CCNc3nc(-c4ccccn4)cs3)CCNc3nc(-c4ccccn4)cs3)n2)nc1.c1ccc(-c2csc(NCCN(CCNc3nc(-c4ccccn4)cs3)CCNc3nc(-c4ccccn4)cs3)n2)nc1 [[L2Zn3]6+]
[1]; Substrate 1 mg/ml
  %AMPK Activity Remaining, Mean: 42.90%
  %AMPK Activity Remaining, individual replicates: 57.40% and 31.37% and 37.80% and 44.50%
[1]; Substrate 2.5 mg/ml
  %AMPK Activity Remaining, Mean: 28.10%
  %AMPK Activity Remaining, individual replicates: 30.60% and 40.90% and 18.40% and 22.50%
[1]; Substrate 5 mg/ml
  %AMPK Activity Remaining, Mean: 39.40%
  %AMPK Activity Remaining, individual replicates: 31.50% (2×) and 56.70% (2×) and 25.70% (2×) and 43.60% (2×)
[1]; Substrate 10 mg/ml
  %AMPK Activity Remaining, Mean: 43.70%
  %AMPK Activity Remaining, individual replicates: 40.20% and 42.80% and 35.20% and 56.50%
[1]; Substrate 15 mg/ml
  %AMPK Activity Remaining, Mean: 35.80%
  %AMPK Activity Remaining, individual replicates: 33.30% and 26.60% and 47.50%
[2]; PAK2
  % Inhibition, Mean: 22%
  % Inhibition, Run 1 / Run 2: 23% and 21%
  mean % activity: 78%
[2]; PAK2, duplicate runs
  % activity: 77% and 79%
[3]; DDR2
  % Inhibition, Mean: 19%
  % Inhibition, Run 1 / Run 2: 23% and 15%
  mean % activity: 81%
[3]; DDR2, duplicate runs
  % activity: 77% and 85%
[4]; ZAP70
  % Inhibition, Mean: 89%
  % Inhibition, Run 1 / Run 2: 91% and 88%
  mean % activity: 11%
  % Activity inhibition Mean: 89.0%
  % Activity inhibition Run 1: 90%
  % Activity inhibition Run 2: 88%
  % Activity remaining Run 1: 10%
  % Activity remaining Run 2: 12%
[4]; ZAP70, duplicate runs
  % activity: 9.5% and 12%
[5]; SIK3
  % Inhibition, Mean: 39%
  % Inhibition, Run 1 / Run 2: 45% and 33%
  mean % activity: 61%
[5]; SIK3, duplicate runs
  % activity: 55% and 67%
